Test results as given in BindingDB's records for patent US20260049084 (Gossamer Bio Services, 2026).

How the values were obtained:
[1] = biological target: Carbonic anhydrase 1 (Homo sapiens, UniProt P00915); test: Carbonic Anhydrase 1 Enzymatic Assay
Procedure: (§1) Test compound and/or vehicle was preincubated with carbonic anhydrase I enzyme (15 μg/ml) isolated from human erythrocyte in reaction buffer (50 mM MOPS solution pH 7.5) for 15 minutes at 25° C. The reaction was initiated by addition of 500 μM 4-nitrophenyl acetate and incubated for 30 minutes. The plate was read on a spectrophotometer (Absorbance: 400 nm)

[2] = biological target: Carbonic anhydrase 2 (Homo sapiens, UniProt P00918); test: Carbonic Anhydrase 2 Enzymatic Assay
Procedure: as §1, with “II” for “I”, “nm).” for “nm)”

[3] = biological target: T1, Ectonucleotide pyrophosphatase/phosphodiesterase family member 3 (Homo sapiens, UniProt O14638); test: ENPP3 cGAMP Biochemical Assay
T1 sequence (O14638 whole entry): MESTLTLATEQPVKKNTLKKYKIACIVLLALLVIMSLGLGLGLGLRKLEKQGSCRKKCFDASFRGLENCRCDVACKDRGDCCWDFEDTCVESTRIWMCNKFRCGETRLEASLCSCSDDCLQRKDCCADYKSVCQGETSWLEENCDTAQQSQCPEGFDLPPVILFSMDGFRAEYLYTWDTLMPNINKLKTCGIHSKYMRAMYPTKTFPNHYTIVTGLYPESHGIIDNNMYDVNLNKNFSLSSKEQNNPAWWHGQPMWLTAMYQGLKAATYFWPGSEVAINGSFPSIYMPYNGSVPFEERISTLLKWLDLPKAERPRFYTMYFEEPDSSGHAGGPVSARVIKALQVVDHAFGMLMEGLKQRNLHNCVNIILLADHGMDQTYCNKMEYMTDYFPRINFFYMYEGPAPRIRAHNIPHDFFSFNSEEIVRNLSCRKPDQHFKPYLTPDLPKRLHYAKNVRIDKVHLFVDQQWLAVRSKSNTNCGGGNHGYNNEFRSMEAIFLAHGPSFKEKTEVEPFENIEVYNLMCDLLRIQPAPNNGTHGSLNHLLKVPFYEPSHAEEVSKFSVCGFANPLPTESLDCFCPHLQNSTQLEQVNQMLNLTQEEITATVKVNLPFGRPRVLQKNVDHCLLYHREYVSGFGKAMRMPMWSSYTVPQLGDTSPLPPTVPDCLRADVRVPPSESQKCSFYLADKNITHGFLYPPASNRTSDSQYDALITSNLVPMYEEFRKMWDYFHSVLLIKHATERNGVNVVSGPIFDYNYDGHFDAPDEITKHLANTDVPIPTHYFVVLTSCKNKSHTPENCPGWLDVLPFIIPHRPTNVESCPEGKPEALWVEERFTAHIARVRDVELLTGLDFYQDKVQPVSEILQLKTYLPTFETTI
Procedure: Compounds were added to 384 well Proxiplate (PerkinElmer, Waltham MA) at 100 nl/well from DMSO stocks using Echo (Labcyte, San Jose CA). Recombinant human ENPP3 protein (Acro Biosystems, Newwark DE) was prepared in assay buffer (50 mM Tris pH7.5, 1 mM TCEP pH7.0, 2 mM MgCl2, 2 mM CaCl2), 2 mM ZnCl2 and 0.005% Tween20) and added at 2 μl/well. […] The plate was sealed and centrifuged at 1000 rpm for 1 minute again. […] The assay plate was incubated at room temperature for 120 minutes. TR-FRET signal was detected using Envision (PerkinElmer, Waltham MA).

[4] = biological target: T2, Ectonucleotide pyrophosphatase/phosphodiesterase family member 1 (Homo sapiens, UniProt P22413); test: ENPP1 cGAMP Biochemical Assay
T2 sequence (P22413 whole entry): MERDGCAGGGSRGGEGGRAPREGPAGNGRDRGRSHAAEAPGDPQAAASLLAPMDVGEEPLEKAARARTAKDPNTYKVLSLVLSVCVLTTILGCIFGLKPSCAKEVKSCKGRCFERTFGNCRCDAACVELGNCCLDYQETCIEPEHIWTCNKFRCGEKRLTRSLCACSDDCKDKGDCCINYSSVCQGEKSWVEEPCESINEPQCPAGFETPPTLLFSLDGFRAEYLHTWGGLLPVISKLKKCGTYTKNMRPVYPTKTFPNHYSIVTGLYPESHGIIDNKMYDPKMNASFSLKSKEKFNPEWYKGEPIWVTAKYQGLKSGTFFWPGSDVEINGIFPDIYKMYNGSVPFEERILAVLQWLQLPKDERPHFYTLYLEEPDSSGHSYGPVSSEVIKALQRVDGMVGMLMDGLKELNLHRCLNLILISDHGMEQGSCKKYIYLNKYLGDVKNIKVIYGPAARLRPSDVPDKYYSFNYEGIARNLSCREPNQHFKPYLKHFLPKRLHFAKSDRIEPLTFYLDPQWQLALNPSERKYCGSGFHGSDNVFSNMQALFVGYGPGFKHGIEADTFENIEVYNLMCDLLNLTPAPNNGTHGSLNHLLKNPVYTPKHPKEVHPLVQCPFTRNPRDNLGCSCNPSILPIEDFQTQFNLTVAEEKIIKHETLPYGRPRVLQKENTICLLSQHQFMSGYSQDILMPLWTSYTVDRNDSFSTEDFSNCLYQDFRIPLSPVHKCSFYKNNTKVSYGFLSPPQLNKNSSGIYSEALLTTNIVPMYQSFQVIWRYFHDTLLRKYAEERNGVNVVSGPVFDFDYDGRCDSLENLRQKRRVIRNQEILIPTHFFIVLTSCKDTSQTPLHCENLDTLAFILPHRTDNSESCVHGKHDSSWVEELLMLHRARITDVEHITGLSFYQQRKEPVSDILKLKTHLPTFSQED
Procedure: Compounds were added to 384 well Proxiplate (PerkinElmer, Waltham MA) at 100 nl/well from DMSO stocks using Echo (Labcyte, San Jose CA). Recombinant human ENPP1 protein (R&D Systems, Minneapolis MN) was prepared in assay buffer (50 mM Tris pH7.5, 1 mM TCEP pH7.0, 2 mM MgCl2 and 0.005% Tween20) and added at 10 μl/well. The plate was sealed, centrifuged at 1000 rpm for 1 minute and incubated at room temperature for 30 minutes before 5 μl substrate 2′3′-cGAMP (R&D Systems, Minneapolis MN) in assay buffer was added to each well to a final concentration of 0.5 nM ENPP1 and 1000 nM 2′3′-cGAMP. The plate was sealed and centrifuged at 1000 rpm for 1 minute again. After incubation at 25° C. for 60 minutes, Terbium labelled AMP/GMP antibody and AMP/GMP HiLyte647 Tracer (BellBrook Labs, Fitchburg WI) in detection buffer (50 mM Tris pH7.5, 20 mM EDTA and 0.1% Prionex) were added to the reaction mixture to a final concentration of 2 nM (5 μl/well). The assay plate was incubated at room temperature for 120 minutes. TR-FRET signal was detected using Envision (PerkinElmer, Waltham MA).

Sequence of Carbonic anhydrase 1 (P00915 whole entry): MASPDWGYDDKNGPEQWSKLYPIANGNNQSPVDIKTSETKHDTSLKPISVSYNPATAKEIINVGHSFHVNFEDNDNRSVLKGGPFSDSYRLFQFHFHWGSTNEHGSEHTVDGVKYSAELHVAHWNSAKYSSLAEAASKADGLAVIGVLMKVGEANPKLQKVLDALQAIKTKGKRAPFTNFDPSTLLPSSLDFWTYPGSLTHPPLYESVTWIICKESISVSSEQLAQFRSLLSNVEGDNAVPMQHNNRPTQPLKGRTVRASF

Row | IC50 [1] | IC50 [2] | IC50 [3] | IC50 [4] | SMILES
1 | > 1000 nM | > 1000 nM |  |  | CN=[S@](N)(=O)N1CCC(CNc2ccnc3c2c(Cl)nn3CC#N)CC1 [US20260049084, Compound 15G]
2 |  |  | > 1000 nM | < 10 nM | CCn1nc(Cl)c2c(NCC3CCN(S(=N)(=O)CCNC(C)=O)CC3)ccnc21 (centres undefined) [US20260049084, Compound 14K]
